According to US20250154149A1, “PHARMACEUTICAL COMPOSITION AND METHOD FOR PREPARING ACTIVE INGREDIENT COMPOUND THEREOF” (Betta Pharmaceuticals Co., Ltd., priority 2022, published 2025):

Experiments:
[1] = system: NCI-H226 cells; assay: Cell proliferation inhibitory activity detection (CTG detection); type: cell-based; settings: Homo sapiens; NCI-H226 cells (NF2 expression-deficient), 144 h, CellTiter-Glo; read-out: IC50 value (inhibition of cell proliferation)
Protocol: The inhibition of the compound on cell proliferation was detected using CellTiter-Glo® Luminescent Cell Viability Assay Kit (Promega Company). NCI-H226 cells (purchased from ATCC, NF2 expression-deficient) were cultured in RPMI 1640 complete medium (containing 10% FBS, 1% penicillin-streptomycin solution and 1 mM sodium pyruvate). • a) The day before compound treatment, cultured cells were washed with PBS, digested with trypsin, and then collected by centrifugation. The supernatant was removed and the cells were resuspended in fresh RPMI 1640 complete medium. […] Finally, the luminescence signal value (RLU) of each well was read on a multifunctional microplate reader PE En Vision®.
Inhibition rate (IR) of the detected compound: IR (%)=(1−(RLU compound−RLU blank control)/(RLU solvent control−RLU blank control))*100%. The inhibition rates of the compounds at different concentrations were calculated in Excel, then software GraphPad Prism was used to generate inhibition curves, and the relevant parameters were calculated, including the minimum inhibition rate Bottom. the maximum inhibition rate Top and IC50. […]

[2] = Pharmacokinetics in plasma of mice after oral administration; type: in vivo; settings: female, BALB/c, mouse, oral (gavage, clear solution), single dose 5 mg/kg
Protocol: Adult BALB/c female mice (6 weeks to 7 weeks) were received a single administration of the compound represented by Formula I containing 10% to 20% DMSO, 10% Solutol (KollipHor HS15) and 80% to 70% physiological saline as excipient. Mice (n=3) were administered orally (gavage, clear solution) at a dose of 5 mg/kg. Blood was collected after oral administration at the following points of time: 15 min, 30 min, 1 h, 2 h, 4 b, 7 h, and 24 h. About 0.1 mL of whole blood was collected from the retro-orbital venous plexus and placed in a test tube containing EDTA anticoagulant. Samples were centrifuged at 4° C. and 4000 rpm for 10 min. Plasma was transferred to a centrifugal tube and stored at −20° C. before analysis. The concentration of test compound in plasma samples was analyzed by liquid chromatography-tandem mass spectrometry (LC-MS/MS). Plasma concentration-time data from individual animals were analyzed using software Sciex Analyst. A non-compartmental model was introduced in the concentration analysis, and pharmacokinetic parameters of the test compound were calculated using software WinNonlin (version 4.1; pHarsight).

[3] = system: YAP/TAZ-TEAD transcription complex; assay: CTGF detection (ELISA method) in NCI-H2052 cells; type: cell-based, human; settings: NCI-H2052 cells (NF2 mutation), 24 hours incubation, CTGF in culture supernatant by ELISA; read-out: EC50 value (CTGF concentration response curve)
Protocol: The detection of CTGF expression level may assess the activity of the YAP/TAZ-TEAD transcription complex. CTGF expression level was quantitatively detected using a human SimpleStep ELISA® kit (Abcam, ab261851).
NCI-H2052 cells (purchased from ATCC, NF2 mutation) were cultured in RPMI 1640 complete medium (containing 10% FBS, 1% penicillin-streptomycin solution and I mM sodium pyruvate). The day before compound treatment, cultured cells were washed with PBS, digested with trypsin, and then collected by centrifugation. The supernatant was removed, and the cells were resuspended in fresh complete medium. Cells were counted and inoculated in 96-well plates at a density of 6500 cells/well. […]
The Human CTGF ELISA Kit uses an affinity labeled capture antibody and a reporter gene coupled detection antibody to immunocapture the sample analytes in the solution. […] 50 μL of standard or cell supernatant sample to be detected were added to the wells of the detection plate. […] Finally, the OD value at 450 nm of each well was read on a multifunctional microplate reader. The concentrations of the target CTGF protein in the samples were determined by standard curve.
The inhibitory activity of the compound of the present application on the transcription regulatory function of TEAD-YAP/TAZ was assessed by the CTGF concentration response curve of the compound. […]

[4] = system: NCI-H226 (NF2 expression-deficient) human lung squamous cell carcinoma xenograft; assay: In vivo efficacy in subcutaneous NCI-H226 xenograft model; settings: QD, oral, day 45, NCI-H226 xenograft in BALB/c nude mice
Protocol: In vivo pharmacodynamics and efficacy studies of the compound represented by Formula I were performed in a subcutaneous NCI-H226 (NF2 expression-deficient) human lung squamous cell carcinoma xenograft model in BALB/c nude mice.
BALB/c nude female mice (6 weeks to 7 weeks) were inoculated subcutaneously with 1×10^7 NCI-H226 tumor cells on the right side of each. The inoculated cells were resuspended in a mixture solution of 0.1 mL of PBS and matrix gel Matrigel (PBS: Matrigel=1:1). Administration treatment was started in groups when the average tumor size reached about 100 mm^3 to 200 mm^3. From the date of grouping, the mice were orally administered the crystal form A of the compound represented by Formula I (solvent: 10% DMSO+10% Solutol (KollipHor HS15)+80% physiological saline) once a day for a total of 45 days (QD×45 days). Animals were regularly monitored for changes in body weight as an indicator of compound safety. Tumors were measured twice weekly using a caliper, and the volume was expressed in mm^3 using the formula “V=(L×W^2)/2”, where V is the tumor volume, L is the length of the tumor (the longest tumor dimension) and W is the width of the tumor (the longest tumor dimension perpendicular to L). Compound inhibitory activity was assessed by tumor growth inhibition TGI (%). […]

[5] = Hygroscopicity test (DVS); type: physicochemical
[6] = Physicochemical stability test of the crystal form A; settings: influencing factors (40° C., 60° C., 92.5% RH, 75% RH, 4500Lx), accelerated test, long-term test
Protocol: Referring to the requirements of “9001 Guidelines for Stability Test of APIs and Pharmaceutical Preparations” in the Chinese Pharmacopoeia, the stability test was conducted on the crystal form A of the compound represented by Formula I, and the specific test conditions are shown in Table 10.

[7] = Pressure stability of the crystal form A; type: physicochemical; settings: pressure conditions of 150 kg and 230 kg

Structure (SMILES) | IC50 [1] | AUC(0-t) [2] | Cmax [2] | EC50 [3] | TGI (%) ([4]; 10 mg/kg) | TGI (%) ([4]; 50 mg/kg) | Crystal form after the DVS test (XRPD) ([5]; after DVS test, XRPD detection) | Hygroscopicity (DVS) ([5]; dynamic vapor sorption analyzer) | Change in crystal form, characteristics and content compared with day 0 [6] | Crystal form after pressing [7]
C=C(F)C(=O)N1CC(n2c(=O)n(-c3ccc(C(F)(F)F)cc3)c3nccnc32)C1 [compound represented by Formula I, 1-[1-(2-fluoroacryloyl)azetidin-3-yl]-3-(4-trifluoromethylphenyl)-1,3-dihydro-2H-imidazo[4,5-b]pyrazin-2-one] | 7 nM | 17200 ng·h/mL | 1970 ng/mL | 2 nM | – | – | – | – | – | –
C=C(F)C(=O)N1CC(n2c(=O)n(-c3ccc(C(F)(F)F)cc3)c3nccnc32)C1 [1-[1-(2-fluoroacryloyl)azetidin-3-yl]-3-(4-trifluoromethylphenyl)-1,3-dihydro-2H-imidazo[4,5-b]pyrazin-2-one] | – | – | – | – | 109% | 111% | no change in the crystal form | no hygroscopicity | no significant change | the crystal form was not changed
